Common to all, as to type: functional
Test [1] concerns T47D. Put plainly: Cytotoxicity against human T47D cells assessed as cellular growth at 10 uM by SRB assay. A general note: Sulforhodamine B stains cellular protein and so reports cell mass.
Test [2] has as its system BT-549. Put plainly: Cytotoxicity against human BT549 cells assessed as cellular growth at 10 uM by SRB assay.
Test [3] deals with MCF7. Put plainly: Cytotoxicity against human MCF7 cells assessed as cellular growth at 10 uM by SRB assay.
The test system of test [4] is DU-145. The test can be described thus: Cytotoxicity against human DU145 cells assessed as cellular growth at 10 uM by SRB assay.
Test [5] relates to PC-3. The test can be described thus: Cytotoxicity against human PC3 cells assessed as cellular growth at 10 uM by SRB assay.
Test [6] deals with SN12C. Put plainly: Cytotoxicity against human SN12C cells assessed as cellular growth at 10 uM by SRB assay.
The test system of test [7] is 786-0. Put plainly: Cytotoxicity against human 786-0 cells assessed as cellular growth at 10 uM by SRB assay.
Test [8] has as its system OVCAR-5. Put plainly: Cytotoxicity against human OVCAR5 cells assessed as cellular growth at 10 uM by SRB assay.
Test [9] concerns UACC-62. Put plainly: Cytotoxicity against human UACC62 cells assessed as cellular growth at 10 uM by SRB assay.
In test [10] the test system is SK-MEL-5. Put plainly: Cytotoxicity against human SK-MEL-5 cells assessed as cellular growth at 10 uM by SRB assay.
The test system of test [11] is SF-295. The test can be described thus: Cytotoxicity against human SF295 cells assessed as cellular growth at 10 uM by SRB assay.
The test system of test [12] is HCT-15. The test can be described thus: Cytotoxicity against human HCT15 cells assessed as cellular growth at 10 uM by SRB assay.
Test [13] deals with HCC 2998. The test can be described thus: Cytotoxicity against human HCC2998 cells assessed as cellular growth at 10 uM by SRB assay.
The test system of test [14] is NCI-H522. The test can be described thus: Cytotoxicity against human NCI-H522 cells assessed as cellular growth at 10 uM by SRB assay.
Test [15] relates to NCI-H322M. Put plainly: Cytotoxicity against human NCI-H322M cells assessed as cellular growth at 10 uM by SRB assay.
Test [16] has as its system NCI-H23. The test can be described thus: Cytotoxicity against human NCI-H23 cells assessed as cellular growth at 10 uM by SRB assay.
Test [17] relates to SR. Put plainly: Cytotoxicity against human SR cells assessed as cellular growth at 10 uM by SRB assay.
The subject of test [18] is RPMI-8226. The test can be described thus: Cytotoxicity against human RPMI8226 cells assessed as cellular growth at 10 uM by SRB assay.

Drawing on ChEMBL document CHEMBL2202954, “The effect of PLC-γ2 inhibitors on the growth of human tumour cells” (2012), this text covers Activity for 13 compounds.

For the compound `O=c1/c(=C/c2ccccc2Cl)sc2nc(-c3ccccc3)nn12`, the Activity in test [1] is listed as 90.39%; in test [2] it was 91.77%; in test [3], 91.04%; in [4], 92.88%; in [5] it was 72.09%; in test [6], 94.39%. For the same compound, the Activity was 101.12% in test [7]; 119.68% in test [8]; 83.77% in test [9]; 93.49% in test [10]; 99.98% in test [11]; 79.8% in test [12]. Further, the Activity in test [13] is 104.88%; in [14], 85.92%; in [15], 96.56%; in test [16], 86.7%; in [17] it was 45.36%; in test [18], 50.72%.
On to `O=C(Nc1nc2ccc(Cl)cc2s1)c1ccc(Cl)cc1Cl`, for which the Activity was 95.96% in test [1]; 111.68% in [2]; 98.4% in [3]; 108.4% in test [4]; 97.1% in test [5]; 113.76% in test [6]. The Activity in test [7] was 95.62%; in test [8], 98.11%; in [9], 96.19%; in test [10], 89.76%; in [11], 76.92%; in [12] it was 100.27%. Further, the Activity in test [13] is on record as 97.08%; in test [14], 98.66%; in test [15] it was 105.38%; in [16] it was 99%; in test [17], 98.17%; in test [18], 91.09%.
For `Cc1cccc(-c2nc(-c3cccs3)no2)c1`, the Activity in test [1] stood at 53.59%; in test [2], 88.13%; in [3], 39.04%; in [4], 120%; in test [5], 80.3%; in [7] it was 93.47%. The Activity in test [9] came to 86.85%; in test [10], 82.84%; in [11], 91.28%; in [12], 83.75%; in [13] it was 80.51%; in [14], 90.03%. In addition, the Activity was found to be 95.9% in [15], 89.36% in test [16], 93.72% in [17] and 92.97% in test [18].
Turning to `Cc1ccc(NC(=O)c2sc3nc4c(cc3c2N)C(=O)CCC4)cc1Cl`, the Activity in test [1] was found to be 105.09%; in [2], 114.66%; in test [3] it was 102.05%; in [4], 108.78%; in test [5], 103.74%; in test [6], 119.21%. For the same compound, the Activity stood at 103.81% in test [7]; 100.98% in test [8]; 108.17% in test [9]; 101.61% in test [10]; 79.97% in test [11]; 97.31% in [12]. The Activity is 102.57% in test [13]; 96.14% in test [14]; 109.22% in test [15]; 100.21% in [16]; 105.35% in test [17]; 104.81% in test [18].
Regarding `COc1ccc(Cl)cc1C(=O)Nc1nc2ccc(Cl)cc2s1`, the Activity is given as 47.23% in [1]; 97.73% in [2]; 41.75% in test [3]; 94.89% in test [4]; 84.45% in test [5]; 91.7% in test [6]. The Activity was 75.8% in [7]; 124.2% in [8]; 91.53% in test [9]; 92.79% in test [10]; 169.8% in test [11]; 86.52% in test [12]. For the same compound, the Activity in [13] is 102.29%; in test [14], 99.37%; in [15], 85.62%; in [16], 90.46%; in [17], 87.67%; in [18], 80.55%.
Consider `CC1(C)CC(=O)c2cc3c(N)c(C(=O)Nc4ccc(F)cc4)sc3nc2C1`, for which the Activity turned out to be 111.5% in test [1]; 111.85% in test [2]; 105.49% in test [3]; 122.42% in test [4]; 110.47% in [5]; 122.37% in test [6]. Moreover, the Activity turned out to be 104.75% in test [7]; 92.85% in [8]; 119.59% in test [9]; 99.04% in [10]; 88.4% in test [11]; 100.72% in [12]. For the same compound, the Activity came to 105.43% in [13]; 102.43% in [14]; 110.83% in test [15]; 102% in [16]; 111.31% in [17]; 103.3% in [18].
On to `Cc1ccc(S(=O)(=O)Oc2ccc(-c3cnc4ccccc4n3)cc2)cc1`, for which the Activity is 87.98% in [1]; 107.31% in test [2]; 98.34% in test [3]; 114.58% in [4]; 90.9% in test [5]; 108.92% in test [6]. In addition, the Activity in test [7] worked out at 96.77%; in test [8] it was 102.67%; in test [9] it was 94.5%; in test [10] it was 84.98%; in test [11], 89.7%; in test [12], 93.92%. Moreover, the Activity in [13] was 102.2%; in test [14], 93.02%; in [15] it was 113.67%; in [16], 96.23%; in [17], 93.66%; in [18], 88.46%.
With `O=c1/c(=C/c2ccccc2)sc2nc(-c3ccc(Cl)cc3Cl)nn12`, the Activity in [1] is reported as 94.32%; in test [2] it was 105.68%; in test [3] it was 100.42%; in test [4], 108.27%; in [5], 115.99%; in test [6], 106.99%. The Activity in [7] came out at 111.75%; in [9], 103%; in test [10], 104.93%; in test [11], 123.35%; in test [12] it was 112.75%; in test [13] it was 122.44%. The Activity in test [14] amounted to 99.33%; in [15] it was 131.46%; in test [16], 102.55%; in test [18] it was 111.72%.
As for `CC1(C)CC(=O)c2cc3c(N)c(C(=O)Nc4ccc(Cl)cc4)sc3nc2C1`, the Activity in test [1] is 96.17%; in [2], 124.84%; in test [3], 102.6%; in test [4], 103.07%; in [5] it was 104.63%; in [6], 109.62%. Besides, the Activity in [7] was found to be 98.68%; in [9] it was 105.25%; in test [10], 96.03%; in test [11], 100.12%; in [12], 107.55%; in test [13], 116.11%. Moreover, the Activity in test [14] was found to be 95.83%; in [15], 113.55%; in test [16], 104.98%; in test [17] it was 112.84%; in test [18] it was 102.77%.
Turning to `Nc1c(C(=O)Nc2ccccc2)sc2nc3c(cc12)C(=O)CCC3`, the Activity worked out at 47.06% in test [1]; 65.66% in test [2]; 19.61% in test [3]; 0.62% in test [4]; 21.62% in [5]; 59.85% in test [6]. The Activity is 36.19% in [7]; 59.92% in [8]; 44.06% in test [9]; 25.74% in [10]; -12.42% in test [11]; 27.18% in [12]. The Activity in test [13] was 21.89%; in [14], -33.85%; in test [15] it was 67.12%; in [16] it was 39.48%; in [17], 21.95%; in test [18], 30.21%.
Regarding `Clc1ccc(-c2nc(-c3cccs3)no2)c(Cl)c1`, the Activity in test [1] is 51.7%; in [2], 83.02%; in test [3], 29.22%; in test [4], 99.3%; in test [5], 83.22%; in test [6], 100.86%. Also, the Activity in test [7] worked out at 97.42%; in test [9] it was 88.98%; in test [10], 83.92%; in test [11] it was 107.44%; in [12], 73.54%; in test [13], 66.03%. Moreover, the Activity in test [14] is 91.42%; in test [15] it was 120.06%; in test [16], 92.64%; in test [18] it was 86.03%.
`Cc1cc(C)c(NC(=O)c2sc3nc4c(cc3c2N)C(=O)CCC4)c(C)c1`: the Activity was found to be 40.64% in [1]; 56.75% in [2]; 16.79% in test [3]; 10.04% in [4]; 23.46% in test [5]; 30.39% in [7]. In addition, the Activity in test [9] is reported as 23.22%; in test [10], 11.34%; in test [11], -11.34%; in [12], 31.78%; in test [13] it was 30.95%; in [14], -14.71%. In addition, the Activity was determined as 56.34% in [15], 33.04% in [16], 10.54% in test [17] and 31.83% in [18].
`Clc1cccc(-c2nc(-c3cccs3)no2)c1`: the Activity is listed as 56.93% in [1]; 101.91% in test [2]; 33.74% in test [3]; 97.4% in test [4]; 84.44% in [5]; 100.21% in test [6]. The Activity in test [7] was 94.52%; in [9], 88.07%; in test [10], 87.95%; in test [11], 108.42%; in test [12], 105.75%; in test [13], 102.03%. Moreover, the Activity was determined as 85.77% in [14]; 99.44% in test [15]; 89.88% in test [16]; 100.52% in test [17]; 95.28% in test [18].
